Measurements as given in patent US10513534B2, “2′-chloro nucleoside analogs for HCV infection” (priority 2012, dated 2019).
Like-named read-outs stand apart in the source and are kept apart here.

Tests used:
HCV genotype 1b replicon = assay: HCV replicon assay (Zluc luciferase); format: cell-based; conditions: Zluc cells, 72 hours, read-out: HCV Replicon EC50
Experimental: Huh-7-derived cell line (Zluc) that harbors an HCV genotype 1b replicon and a luciferase reporter gene was grown in Dulbecco's Modified Eagle Medium (DMEM) supplemented with 10% fetal bovine serum, 2 mM GlutaMAX, 1% MEM nonessential amino acids, 100 IU/mL penicillin, 100 μg/mL streptomycin, and 0.5 mg/mL Geneticin® (G418). For dose response testing the cells were seeded in 96-well plates at 7.5×10^3 cells per well in a volume of 50 μL, and incubated at 37° C./5% CO2. Drug solutions were made up freshly in Huh-7 media as 2× stocks. Ten additional 5-fold dilutions were prepared from these stocks in DMEM without G418. At least three hours after Zluc cells were seeded, drug treatment was initiated by adding 50 μL of drug dilutions to the plates in duplicate. Final concentrations of drug ranged from 100 μM to […]. Cells were then incubated at 37° C./5% CO2. Alternatively, compounds were tested at two concentrations (1 μM and 10 μM). […] For this, media was removed from the plates via gentle tapping. Fifty microliters of ONE-glo luciferase assay reagent was added to each well. The plates were shaken gently for 3 min at room temperature and luminescence was measured on a Victor^3 V 1420 multilabel counter (Perkin Elmer) with a 1 second read time using a 700 nm cut-off filter. The EC50 values were calculated from dose response curves from the resulting best-fit equations determined by Microsoft Excel and XLfit 4.1 software. When screening at two fixed concentrations, the results were expressed as % inhibition at 1 μM and 10 μM.

[1] = Stability in liver microsomes; format: in vitro ADME; conditions: human liver microsomes 1.0 mg/mL, 10 μM, NADPH, 60 min
Experimental: (§1) Stability of test compounds were determined in human liver and intestinal microsomes in duplicate for each matrix. Pooled liver and intestinal microsomal proteins (1.0 mg/mL), suspended in incubation buffer (100 mM potassium phosphate, pH 7.4, 5 mM MgCl2, and 0.1 mM EDTA), were preincubated for 5 min at 37° C. with 10 μM of a test compound from a 10 mM stock solution in DMSO (final DMSO concentration was 0.1%); the reaction was initiated by the addition of NADPH (3 mM final concentration). At specific times (0 and 60 min), 0.1 mL samples were taken and the reaction terminated by the addition of 4 volumes of stop solution (acetonitrile with 500 ng/mL carbutamide as an internal standard). The samples were vortexed for 30 sec and then centrifuged at 16000×g for 10 min. 100 μL of supernatants were transferred to 96 deep-well plates preloaded with 100 μL distilled water and analyzed after mixing by LC-MS/MS. The MS peak area ratio of the test compound versus the internal standard was calculated and percent unchanged test compound over 60 minutes was calculated using this ratio.

[2] = Stability in intestinal microsomes; format: in vitro ADME; conditions: human intestinal microsomes 1.0 mg/mL, 10 μM, NADPH, 60 min
Experimental: as §1

Huh-7 cells = assay: Release of active metabolite in Huh-7 cells; format: in vitro ADME
Experimental: Huh-7 cells were plated in 1 mL culture medium (DMEM, containing glucose, L-glutamine and sodium pyruvate, 10% FBS, 100 IU/mL penicillin, 100 μg/mL streptomycin, 2 mM GlutaMAX, 1% MEM non-essential amino acids) at the concentration 0.8, 0.4 and 0.2 million cells per well on 6 well plates for 24, 48 and 72 hr treatment, respectively. Plated cells were incubated overnight at 37° C. in an incubator.
The following morning test compound was diluted to 20 μM from a stock solution in DMSO in fresh culture medium pre-warmed to 37° C. and 1 mL of the solution/well was added to cells. A final medium volume per well was 2.0 mL, test compound concentration in well was 10 μM and final DMSO concentration was 0.1%.
After 24, 48 or 72 hr, the medium was carefully removed and cell monolayers were washed twice with 2 mL ice-cold PBS per well. Following the last wash, all PBS was carefully removed and 1.0 mL of extraction solution (ice-cold 70% methanol) added. The plate was tightly covered with Parafilm, plastic plate cover and Parafilm again and an intracellular content was extracted at −20° C. for 24 hr.
After 24 hr the extracts were transferred into polypropylene microfuge tubes and dry on a refrigerated centrivap concentrator. Dry residues were reconstituted in 250 μL of HPLC-grade water and centrifuged at 16,000×g for 10 min. Aliquots (100 μL each) of the supernatants were transferred into a 96 well plate and internal standard (4 ng/mL final concentration) was added as the internal standard (IS) for LC-MS/MS analysis.

[3] = Plasma nucleoside pharmacokinetics after single oral dose in CD-1 mice; format: in vivo; conditions: single oral dose 10 mg/kg in PEG 200;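 as to Ms Plasma nucleoside AUC: pmol·h/mL plasma normalized to a 1 µmol/kg dose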
Experimental: Plasma samples were analyzed for nucleoside by LC-MS/MS. The internal standard (IS) was either 2′-MeG-D3 or tiapride. For protein precipitation and extraction, each plasma sample (50 μL) was treated with 500 μL of 0.2% formic acid in acetonitrile and 20 μL of the internal standard working solution. After vortexing and centrifugation, 500 μL of the sample extracts were transferred to a new plate, dried under N2 at ˜28° C. and reconstituted with 75 μL of 0.2% FA in water. The extracts were chromatographed on an Aquasil C18 column using a gradient system of 0.2% formic acid in water and acetonitrile. The analytes were detected and quantified by tandem mass spectrometry in positive ion mode on an MDS Sciex API5000 equipped with a Turbo Ionspray® interface. The calibration range was 0.500 (LLOQ) to 200 ng/mL in mouse plasma.

[4] = Liver triphosphate pharmacokinetics after single oral dose in CD-1 mice; format: in vivo; set-up: key: + ≤ 15; 15 < ++ ≤ 50; 50 < +++ ≤ 100; 100 < ++++; BLQ = below limit of quantitation; conditions: single oral dose 10 mg/kg in PEG 200;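 as to Ms Liver TP AUC: pmol·h/g liver normalized to a 1 µmol/kg dose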;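 as to Ms Liver TP Cmax: pmol/g liver normalized to a 1 µmol/kg dose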
Experimental: Internal standard solution was added to the homogenate followed by neutralization with 20% ammonium hydroxide solution and addition of 500 μL 1% formic acid. The tissue samples were extracted by weak anion exchange solid phase extraction (SPE). Post extraction, the eluates were evaporated under nitrogen, followed by reconstitution before injection onto the LC-MS/MS system.

in vitro = conditions: human
fresh mouse hepatocytes = assay: Release of active metabolite in fresh mouse hepatocytes; format: in vitro ADME; conditions: 10 μM
Experimental: Plates of fresh human and mouse hepatocytes were obtained on ice. The medium was removed and replaced with hepatocyte culture medium (William's E supplemented with penicillin-streptomycin, 1% L-glutamine, 1% insulin-transferrin-selenium and 0.1 μM Dexamethasone (Invitrogen) or with Invitro GRO HI medium complemented with Torpedo antibiotics (Celsis)). Cells were left overnight in an incubator at 37° C. to acclimatize to culture and the medium.
Hepatocyte incubations were conducted at a final volume of 0.5 mL hepatocyte culture medium/well (0.8 million cells/well for human and 0.5 million cells/well for mouse; 12 well plate no overlay, collagen coat). Culture medium from overnight incubation of cells was removed and replaced with fresh medium, pre-warmed to 37° C., containing 10 μM of test compound from a stock solution in DMSO (final DMSO concentration was 0.1%). At each specific time point, incubation medium was removed and cell monolayers were carefully washed two times with ice-cold PBS. Following the last wash, all PBS was carefully removed and 1.0 mL of extraction solution (ice-cold 70% methanol/30% water) added. Cells were scraped off and suspended in the extraction solution, transferred to 2 mL polypropylene microfuge tubes and intracellular contents extracted overnight at −20° C.
After the overnight treatment the cellular extracts were prepared by centrifugation at 16,000×g for 10 min to remove cellular debris. The remaining sample was then dried using a refrigerated centrivap concentrator. Dry extracts were reconstituted in 1000 μL of HPLC-grade water and centrifuged at 16,000×g for 10 min. Aliquots (100 μL each) of the supernatant were transferred into a 96 well plate and internal standard (4 ng/mL final concentration) was added as the internal standard (IS) for LC-MS/MS analysis.
The incubation time points were 6, 24 and 48 hours for human hepatocytes and 1, 4, 8, 12 and 24 hours for mouse hepatocytes.

| Structure (SMILES) | EC50 (HCV genotype 1b replicon) | HLM (1 hr) stability (percent remaining) [1] | HIM (1 hr) stability (percent remaining) [2] | Huh-7 TP AUC (Huh-7 cells; 10 μM) | Huh-7 TP Cmax (Huh-7 cells; 10 μM test compound) | Huh-7 TP (24 hr) (Huh-7 cells; 10 μM, 24 hr) | Huh-7 TP (48 hr) (Huh-7 cells; 10 μM, 48 hr) | Huh-7 TP (72 hr) (Huh-7 cells; 10 μM, 72 hr) | Ms Plasma nucleoside AUC [3] | Ms Plasma nucleoside Cmax [3] | Ms Liver TP AUC [4] | Ms Liver TP Cmax [4] | CC50 (in vitro) | EC50 (HCV genotype 1b replicon; Hepatitis C virus, 72 h) | MsH AUC (fresh mouse hepatocytes) | MsH Cmax (fresh mouse hepatocytes) |
| --- | --- | --- | --- | --- | --- | --- | --- | --- | --- | --- | --- | --- | --- | --- | --- | --- |
| CC(C)OC(=O)[C@H](C)NP(=O)(OC[C@H]1O[C@@H](n2ccc(=O)[nH]c2=O)[C@](C)(Cl)[C@@H]1O)Oc1ccccc1 (single isomer, unassigned) [Compound 40ii Diastereomer 1] | 1 to 10 µM | + (+ ≤ 25%) | +++ (50% < +++ ≤ 75%) | ++++ (1500 < ++++) | ++++ (100 < ++++) | ++ (15 < ++ ≤ 50) | +++ (50 < +++ ≤ 100) | ++++ (100 < ++++) | +++ (500 < +++ ≤ 1500) | +++ (50 < +++ ≤ 100) | +++ (500 < +++ ≤ 1500) | +++ (50 < +++ ≤ 100) | > 50 µM | – | – | – |
| CC(C)(C)C(=O)SCCOP1(=O)OC[C@H]2O[C@@H](n3ccc(N)nc3=O)[C@](C)(Cl)[C@@H]2O1 (single isomer, unassigned) [Compound 61 Diastereomer 1] | – | – | – | – | – | – | – | – | + (+ ≤ 150) | ++++ (100 < ++++) | +++ (500 < +++ ≤ 1500) | +++ (50 < +++ ≤ 100) | > 50 µM | < 0.25 µM | – | – |
| CCOC(=O)NCC(C)(C)C(=O)SCCOP1(=O)OC[C@H]2O[C@@H](n3ccc(=O)[nH]c3=O)[C@](C)(Cl)[C@@H]2O1 (single isomer, unassigned) [Compound 70 Single Diastereomer] | – | – | – | – | – | – | – | – | ++++ (1500 < ++++) | ++++ (100 < ++++) | ++++ (1500 < ++++) | ++++ (100 < ++++) | > 50 µM | < 0.25 µM | – | – |
| CC(C)(C)C(=O)SCCOP1(=O)OC[C@H]2O[C@@H](n3ccc(=O)[nH]c3=O)[C@](C)(Cl)[C@@H]2O1 (single isomer, unassigned) [Compound 201 Single Diastereomer] | – | – | – | – | – | – | – | – | +++ (500 < +++ ≤ 1500) | +++ (50 < +++ ≤ 100) | ++++ (1500 < ++++) | ++++ (100 < ++++) | > 50 µM | < 0.25 µM | – | – |
| CCCCOC(=O)[C@@H](C)NP(=O)(OC[C@H]1O[C@@H](n2ccc(=O)[nH]c2=O)[C@](C)(Cl)[C@@H]1O)Oc1ccccc1 (single isomer, unassigned) [Compound 202i Diastereomer 1] | 1 to 10 µM | – | – | – | – | – | – | – | ++++ (1500 < ++++) | ++++ (100 < ++++) | ++++ (1500 < ++++) | ++++ (100 < ++++) | > 50 µM | – | – | – |
| C[C@@H](NP(=O)(OC[C@H]1O[C@@H](n2ccc(=O)[nH]c2=O)[C@](C)(Cl)[C@@H]1O)Oc1ccccc1)C(=O)OCc1ccccc1 (single isomer, unassigned) [Compound 205i Diastereomer 1] | 1 to 10 µM | – | – | – | – | – | – | – | +++ (500 < +++ ≤ 1500) | +++ (50 < +++ ≤ 100) | ++++ (1500 < ++++) | ++++ (100 < ++++) | > 50 µM | – | – | – |
| CC(C)OC(=O)[C@@H](C)NP(=O)(OC[C@H]1O[C@@H](n2ccc(=O)[nH]c2=O)[C@](C)(Cl)[C@@H]1O)Oc1ccccc1 (single isomer, unassigned; diastereomer 2) [Compound 40i Diastereomer 2] | – | +++ (50% < +++ ≤ 75%) | ++++ (75% < ++++) | – | – | – | – | – | +++ (500 < +++ ≤ 1500) | +++ (50 < +++ ≤ 100) | ++++ (1500 < ++++) | ++++ (100 < ++++) | – | – | +++ (500 < +++ ≤ 1500) | +++ (50 < +++ ≤ 100) |
| C[C@@]1(Cl)[C@H](O)[C@@H](CO)O[C@H]1n1ccc(=O)[nH]c1=O [Compound 301, 2′-C-Chloro-2′-C-methyluridine] | – | – | – | – | – | – | – | – | +++ (500 < +++ ≤ 1500) | +++ (50 < +++ ≤ 100) | BLQ | BLQ | > 50 µM | > 10 µM | – | – |
